According to patent US7371780B2, “Use of calphostin C to treat drug-resistant tumor cells” (priority 2003, dated 2008):

What was measured:
[1] = test system: MCF-7TAX cells; assay: Cytoplasmic shrinkage by hematoxylin/eosin staining, MCF-7TAX; type: cell-based, human
Description: For staining with hematoxylin and eosin, cells were grown in a six-well culture plate with each well containing a Snowcoat X-Tra™ microscope slide (Surgipath Laboratories, MB) immersed in 3 ml of H21 medium. When the cells reached 50% confluence, they were treated with 0-300 nM calphostin C, followed by a 2 hour exposure of the cultures to fluorescent light as described above. After light activation, the cells were placed in a 37° C. humidified incubator with 5% CO2 and incubated for an additional 22 hours. The cells were then stained with hematoxylin and eosin using a previously described procedure. Briefly, the media was removed from cell cultures and the cells that remained adhered to the slides were washed with PBS, fixed in formalin:acetone (1:2) for 2 min, and allowed to air dry for 10 min. After washing with distilled water, 250 μl of hematoxylin solution (BDH Chemicals, Toronto, ON) was placed on each slide and allowed to incubate with the cells for 5 min. The slides were then washed with distilled water, Scott's tap water (20 g MgSO4.7H2O, 1.5 g NaHCO3 in 1 L H2O), and a final wash with distilled water. The cells on the slides were then stained for 5 min in 250 μl of eosin solution (100 ml of 1% eosin, 10 ml of 1% phyloxine, 4 ml of glacial acetic acid, and 780 ml of 95% ethanol). The cells were then dehydrated by washing three times in 95% ethanol and twice in 100% ethanol. The small slide was then mounted on a standard microscope glass slide, and 10 randomly selected fields were viewed at 100× magnification and photographed. For each concentration of calphostin C, the total number of dead cells in each field was ascertained and expressed relative to the total number of cells in the field.

[2] = test system: caspase-8, PARP and cytochrome C in MCF-7TAX cells; assay: Immunoblotting of apoptosis markers, MCF-7TAX; type: cell-based, human
Description: (§1) For preparation of mitochondrial and cytoplasmic cellular fractions, MCF-7, MCF-7TAX, and MCF-7DOX cells were grown in a monolayer to 70-90% confluence on 10 cm tissue culture plates. Twenty-four hours prior to extraction, the cells were treated with 50 nM light-activated calphostin C as described above. After this treatment, the cells were trypsinized, centrifuged at 1000 rpm in a Beckman GP centrifuge and washed with PBS. To the resulting cell pellet, 1 ml of ice-cold homogenization (HM) buffer was added. This buffer consisted of 85.55 g sucrose, 1.406 g MOPS, 0.292 g EDTA, and 1 ml ethanol per liter of solution, with a final pH of 7.2. Prior to use, 0.2 ml of 0.1 M PMSF, 1 Complete™ protease inhibitor tablet (Roche Diagnostics, Laval, QC), and 20 μl of 1 M DTT was added for 100 ml of HM buffer. Cells were then lysed 10 times by homogenization in a 2 ml dounce homogenizer. Nuclei in the lysate were then pelleted by centrifugation in a microfuge tube at 70 g for 10 minutes at 4° C. and the supernatant carefully removed. The supernatant was clarified by centrifugation at 1950 g for 10 minutes at 4° C. and the pellet (containing mitochondria) was resuspended in 50 μl of HM buffer. The remaining clarified supernatant was deemed the cytoplasmic fraction. […]

[3] = test system: caspase-8, PARP and cytochrome C in MCF-7DOX cells; assay: Immunoblotting of apoptosis markers, MCF-7DOX; type: cell-based, human
Description: as §1

[4] = test system: mouse B16BL6 melanoma cells; assay: Death and cytoplasmic vacuolization, B16BL6; type: cell-based; settings: data not shown
[5] = light-activated calphostin C, whole cell extracts
[6] = mitochondrial and cytoplasmic fractions

**Q.** Which results are given for `COc1c(C[C@@H](C)OC(=O)Oc2ccc(O)cc2)c2c3c(C[C@@H](C)OC(=O)c4ccccc4)c(OC)c(=O)c4c(O)cc(OC)c(c5c(OC)cc(O)c(c1=O)c52)c43` [calphostin C]?
**A.** concentration required for complete cytoplasmic shrinkage [1]: 300 nM; percentage of cells exhibiting cytoplasmic shrinkage ([1]; 25 nM calphostin C): remained unchanged; percentage of cells exhibiting cytoplasmic shrinkage ([1]; 50 nM calphostin C): 23%; caspase-8 and PARP cleavage (protein levels) [2, 5]: did not result in any change; release of cytochrome C from mitochondria [2, 6]: no clear evidence for the release of cytochrome C; caspase-8 and PARP cleavage (protein levels) [3, 5]: did not result in any change; release of cytochrome C from mitochondria [3, 6]: no clear evidence for the release of cytochrome C; induction of death and cytoplasmic vacuolization [4]: induce both death and cytoplasmic vacuolization
